From ChEMBL document CHEMBL1122334, “New azacannabinoids highly active in the central nervous system” (1983)

Key:
Format in all cases: functional
[1] = test system: Rattus norvegicus; test: The compound was tested for methamphetamine antagonism in rat at a dose of 80 mg/Kg
[2] = test system: Mus musculus; test: The compound was tested for activity to decrease fighting in mouse at a dose of 20 mg/Kg
[3] = test system: Rattus norvegicus; test: The compound was tested for hyperexcitability in rat at a dose of 80 mg/Kg
[4] = test system: Mus musculus; test: The compound was tested for activity to decrease fighting in mouse at a dose of 5 mg/Kg
[5] = test system: Rattus norvegicus; test: The compound was tested for serotonin antagonism in rat at a dose of 5 mg/Kg
[6] = test system: Rattus norvegicus; test: The compound was tested for decreasing motor activity in rat at a dose of 20 mg/Kg
[7] = test system: Rattus norvegicus; test: The compound was tested for serotonin antagonism in rat at a dose of 20 mg/Kg
[8] = test system: Rattus norvegicus; test: The compound was tested for serotonin antagonism in rat at a dose of 80 mg/Kg
[9] = test system: Rattus norvegicus; test: The compound was tested for decreasing motor activity in rat at a dose of 80 mg/Kg
[10] = test system: Rattus norvegicus; test: The compound was tested for hyperexcitability in rat at a dose of 5 mg/Kg
[11] = test system: Rattus norvegicus; test: The compound was tested for methamphetamine antagonism in rat at a dose of 5 mg/Kg
[12] = test system: Rattus norvegicus; test: The compound was tested for decreasing motor activity in rat. at a dose of 5 mg/Kg
[13] = test system: Mus musculus; test: The compound was tested for analgesic activity using writhing (W) test in mouse at a dose of 10 mg/Kg
[14] = test system: Rattus norvegicus; test: The compound was tested for methamphetamine antagonism in rat at a dose of 20 mg/Kg
[15] = test system: Rattus norvegicus; test: The compound was tested for hyperexcitability in rat at a dose of 20 mg/Kg
[16] = organism: Rattus norvegicus; test: The compound was tested for analgesic activity using (RTF) tail-flick test in rat
[17] = test system: Rattus norvegicus; test: The compound was tested for decreasing motor activity in rat at a dose of 1 mg/Kg
[18] = test system: Mus musculus; test: The compound was tested for activity to decrease fighting in mouse at a dose of 10 mg/Kg
[19] = test system: Rattus norvegicus; test: The compound was tested for decreasing motor activity in rat at a dose of 4 mg/Kg
[20] = organism: Mus musculus; test: The compound was tested for analgesic activity using writhing (W) test in mouse
[21] = test system: Rattus norvegicus; test: The compound was tested for analgesic activity using (RTF) tail-flick test in rat at a dose of 20 mg/Kg
[22] = test system: Rattus norvegicus; test: The compound was tested for hyperexcitability in rat. at a dose of 80 mg/Kg
[23] = test system: Rattus norvegicus; test: The compound was tested for decreasing motor activity in rat at a dose of 5 mg/Kg
[24] = test system: Rattus norvegicus; test: The compound was tested for analgesic activity using (RTF) tail-flick test at a dose of 40 mg/Kg
[25] = test system: Mus musculus; test: The compound was tested for analgesic activity using writhing (W) test in mouse at a dose of 40 mg/Kg
[26] = test system: Rattus norvegicus; test: The compound was tested for analgesic activity using (RTF) tail-flick test in rat at a dose of 40 mg/Kg
[27] = test system: Rattus norvegicus; test: The compound was tested for decreasing motor activity in rat at a dose of 10 mg/Kg

Structure (SMILES)	Decrease in activity [1] [%]	Decrease in fighting [2] [%]	Possible response [3] [%]	Decrease in fighting [4] [%]	Decrease in activity [5] [%]	Decrease in activity [6] [%]	Decrease in activity [7] [%]	Decrease in activity [8] [%]	Decrease in activity [9] [%]	Possible response [10] [%]	Decrease in activity [11] [%]	Decrease in activity [12] [%]	increase in response [13] [%]	Decrease in activity [14] [%]	Possible response [15] [%]	Decrease in activity [23] [%]	also measured
CC(CCCc1ccc(F)cc1)c1cc(O)c2c(c1)OC(C)(C)C1=C2CN(CC(=O)N(C)C)CC1 (stereo not given)	54	12	69	3	11	27	12	55	68	0	-35	0	24	34	10		
C#CCN1CCC2=C(C1)c1c(O)cc(C(C)CCCc3ccc(F)cc3)cc1OC2(C)C (stereo not given)	84			-29						60	8			34	100		ED50 [16]: 3.7 mg/kg; Decrease in activity [17]: 60%; Decrease in fighting [18]: 47%; Decrease in activity [19]: 77%; ED50 [20]: 5.3 mg/kg
CCCCCC(C)C(C)c1cc(O)c2c(c1)OC(C)(C)C1=C2CN(CC(=O)NC)CC1 (stereo not given)	72	34		11	-54	66	21	97	93	92	72			72	100	33	increase in response [21]: 92%; Possible response [22]: 100%; ED50 [20]: 5.1 mg/kg
CCCCCC(C)C(C)c1cc(O)c2c(c1)OC(C)(C)C1=C2CN(CC(=O)NC(=O)Nc2ccccc2)CC1 (stereo not given)	-28		0		-56	42	-15	-17	51	0	-37			-24	0	37	
CC(CCCc1ccc(F)cc1)c1cc(O)c2c(c1)OC(C)(C)C1=C2CN(CC(=O)NCC(N)=O)CC1 (stereo not given)	25		0		-17	12	-10	26	9	0	1			2	0	-11	
CNC(=O)CN1CCC2=C(C1)c1c(O)cc(C(C)CCCc3ccc(F)cc3)cc1OC2(C)C (stereo not given)	73	93	100	56	6	66	63	92	94	92	51	73	71	63	100		
CCCCCC(C)C(C)c1cc(O)c2c(c1)OC(C)(C)C1=C2CN(CCC(N)=O)CC1 (stereo not given)	13		67		-73	65	-13	-71	83	0	-4	49	0	17	0		
CCCCCC(C)C(C)c1cc(O)c2c(c1)OC(C)(C)C1=C2CN(CC(N)=O)CC1 (stereo not given)	71	21	98	10	71	78	83	78	86	65	42	28	6	58	79		increase in response [24]: 132%; increase in response [25]: 82%
CCCCCC(C)C(C)c1cc(O)c2c(c1)OC(C)(C)C1=C2CN(CC(=O)NC(=O)NC)CC1 (stereo not given)	54		81		34	68	50	89	88	35	38			66	71	63	
CCCCCC(C)C(C)c1cc(O)c2c(c1)OC(C)(C)C1=C2CN(CC(=O)Nc2ccccc2)CC1 (stereo not given)	-9		0		3	18	-28	-13	6	0	0		12	15	0	4	
CCCCCC(C)C(C)c1cc(O)c2c(c1)OC(C)(C)C1=C2CN(C(C)C(=O)NC(N)=O)CC1 (stereo not given)	81		77		11	67	43	98	83	50	47			50	63	67	
CCCCCC(C)C(C)c1cc(O)c2c(c1)OC(C)(C)C1=C2CN(CC(=O)N(C)C)CC1 (stereo not given)	26	13	69	10		65			78	0	-43	53	19	-36	13		increase in response [26]: 84%; increase in response [25]: 86%
CCCCCc1cc(O)c2c(c1)OC(C)(C)[C@@H]1CCC(C)=C[C@@H]21 [DRONABINOL]				36		72				29					100	15	ED50 [16]: 27 mg/kg; Decrease in activity [27]: 41%; ED50 [20]: 43 mg/kg
